Measurements reported in ChEMBL document CHEMBL1201862, “PubChem BioAssay data set” (2004).
Blank lines part the entries; values can stand above or below the compound they belong to. Active and inactive are the calls of the source.

Key:
Type in all cases: functional
[1] = biological target: Serine/threonine-protein kinase TAO1 (Homo sapiens, UniProt Q7L7X3)
[2] = biological target: Cyclin-dependent kinase 19 (Homo sapiens, UniProt Q9BWU1); assay: Navigating the Kinome. Panel member name: CDC2L6
[3] = biological target: STE20-like serine/threonine-protein kinase (Homo sapiens, UniProt Q9H2G2)
[4] = biological target: Lymphokine-activated killer T-cell-originated protein kinase (Homo sapiens, UniProt Q96KB5);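 note: value comes from a kinase panel screen in which TOPK was one of the panel members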
[5] = biological target: Mitogen-activated protein kinase kinase kinase kinase 4 (Homo sapiens, UniProt O95819)
[6] = biological target: ALK tyrosine kinase receptor (Homo sapiens, UniProt Q9UM73);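 note: ALK tested as one member of a kinase panel screen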
[7] = biological target: Proto-oncogene tyrosine-protein kinase receptor Ret (Homo sapiens, UniProt P07949);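 note: measured within a kinome-wide profiling panel, RET as the panel member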
[8] = biological target: Tyrosine-protein kinase receptor TYRO3 (Homo sapiens, UniProt Q06418);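 note: TYRO3 value obtained as one member of a kinome-wide profiling panel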
[9] = biological target: Hepatocyte growth factor receptor (Homo sapiens, UniProt P08581);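 note: kinase panel profiling across the kinome, with MET as the panel member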
[10] = biological target: Dual specificity tyrosine-phosphorylation-regulated kinase 1B (Homo sapiens, UniProt Q9Y463); assay: Navigating the Kinome. Panel member name: DYRK1B
[11] = biological target: Leucine-rich repeat serine/threonine-protein kinase 2 (Homo sapiens, UniProt Q5S007);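 note: value from a broad kinome-wide panel profiling study in which LRRK2 was one of the kinases tested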
[12] = biological target: Cyclin-dependent kinase 8 (Homo sapiens, UniProt P49336); assay: Navigating the Kinome. Panel member name: CDK8
[13] = biological target: Dual specificity protein kinase CLK4 (Homo sapiens, UniProt Q9HAZ1)
[14] = biological target: Macrophage-stimulating protein receptor (Homo sapiens, UniProt Q04912); assay: Navigating the Kinome. Panel member name: MST1R
[15] = biological target: Dual specificity tyrosine-phosphorylation-regulated kinase 1A (Homo sapiens, UniProt Q13627);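 note: measured against DYRK1A as one member of a broad kinome profiling panel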
[16] = biological target: Leukocyte tyrosine kinase receptor (Homo sapiens, UniProt P29376); assay: Navigating the Kinome. Panel member name: LTK
[17] = biological target: Phosphorylase b kinase gamma catalytic chain, liver/testis isoform (Homo sapiens, UniProt P15735);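 note: PHKG2 measured as one member of a kinome-wide kinase panel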
[18] = biological target: Serine/threonine-protein kinase D3 (Homo sapiens, UniProt O94806);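 note: determined within a kinase panel screen, with PRKCN as the panel member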
[19] = biological target: T1, Interleukin-1 receptor-associated kinase 4 (Homo sapiens, UniProt Q9NWZ3)
T1 sequence (Q9NWZ3 whole entry): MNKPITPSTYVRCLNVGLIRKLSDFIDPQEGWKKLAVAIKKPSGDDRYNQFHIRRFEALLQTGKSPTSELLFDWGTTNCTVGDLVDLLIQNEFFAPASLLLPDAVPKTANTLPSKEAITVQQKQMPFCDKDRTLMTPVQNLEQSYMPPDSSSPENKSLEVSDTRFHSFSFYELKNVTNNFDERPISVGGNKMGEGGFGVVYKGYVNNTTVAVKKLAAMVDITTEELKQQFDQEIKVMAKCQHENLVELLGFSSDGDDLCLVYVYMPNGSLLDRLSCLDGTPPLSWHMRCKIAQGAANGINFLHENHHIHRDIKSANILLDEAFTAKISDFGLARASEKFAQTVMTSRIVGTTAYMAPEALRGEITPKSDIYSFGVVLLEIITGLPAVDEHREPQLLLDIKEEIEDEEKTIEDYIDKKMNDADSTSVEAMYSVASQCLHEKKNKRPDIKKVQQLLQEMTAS

[20] = biological target: Serine/threonine-protein kinase pim-2 (Homo sapiens, UniProt Q9P1W9);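 note: value comes from a broad kinase panel profiling study in which PIM2 was one of the panel members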
[21] = biological target: Serine/threonine-protein kinase DCLK1 (Homo sapiens, UniProt O15075);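 note: affinity for DCLK1 (listed as DCAMKL1) measured as one member of a kinome-wide kinase profiling panel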
[22] = biological target: Tyrosine-protein kinase JAK2 (Homo sapiens, UniProt O60674);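 note: JAK2 tested as one member of a kinase panel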
[23] = biological target: Tyrosine-protein kinase SYK (Homo sapiens, UniProt P43405)
[24] = biological target: Testis-specific serine/threonine-protein kinase 2 (Homo sapiens, UniProt Q96PF2);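 note: part of the Navigating the Kinome panel, target entry STK22B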
[25] = biological target: Tyrosine-protein kinase Lck (Homo sapiens, UniProt P06239);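 note: lck was assayed as one member of a kinase panel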
[26] = biological target: MAP kinase-activated protein kinase 5 (Homo sapiens, UniProt Q8IW41);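 note: measured as one member of a kinome panel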
[27] = biological target: Calcium/calmodulin-dependent protein kinase type II subunit delta (Homo sapiens, UniProt Q13557)
[28] = biological target: T2, Tyrosine-protein kinase JAK3 (Homo sapiens, UniProt P52333)
T2 sequence (P52333 whole entry): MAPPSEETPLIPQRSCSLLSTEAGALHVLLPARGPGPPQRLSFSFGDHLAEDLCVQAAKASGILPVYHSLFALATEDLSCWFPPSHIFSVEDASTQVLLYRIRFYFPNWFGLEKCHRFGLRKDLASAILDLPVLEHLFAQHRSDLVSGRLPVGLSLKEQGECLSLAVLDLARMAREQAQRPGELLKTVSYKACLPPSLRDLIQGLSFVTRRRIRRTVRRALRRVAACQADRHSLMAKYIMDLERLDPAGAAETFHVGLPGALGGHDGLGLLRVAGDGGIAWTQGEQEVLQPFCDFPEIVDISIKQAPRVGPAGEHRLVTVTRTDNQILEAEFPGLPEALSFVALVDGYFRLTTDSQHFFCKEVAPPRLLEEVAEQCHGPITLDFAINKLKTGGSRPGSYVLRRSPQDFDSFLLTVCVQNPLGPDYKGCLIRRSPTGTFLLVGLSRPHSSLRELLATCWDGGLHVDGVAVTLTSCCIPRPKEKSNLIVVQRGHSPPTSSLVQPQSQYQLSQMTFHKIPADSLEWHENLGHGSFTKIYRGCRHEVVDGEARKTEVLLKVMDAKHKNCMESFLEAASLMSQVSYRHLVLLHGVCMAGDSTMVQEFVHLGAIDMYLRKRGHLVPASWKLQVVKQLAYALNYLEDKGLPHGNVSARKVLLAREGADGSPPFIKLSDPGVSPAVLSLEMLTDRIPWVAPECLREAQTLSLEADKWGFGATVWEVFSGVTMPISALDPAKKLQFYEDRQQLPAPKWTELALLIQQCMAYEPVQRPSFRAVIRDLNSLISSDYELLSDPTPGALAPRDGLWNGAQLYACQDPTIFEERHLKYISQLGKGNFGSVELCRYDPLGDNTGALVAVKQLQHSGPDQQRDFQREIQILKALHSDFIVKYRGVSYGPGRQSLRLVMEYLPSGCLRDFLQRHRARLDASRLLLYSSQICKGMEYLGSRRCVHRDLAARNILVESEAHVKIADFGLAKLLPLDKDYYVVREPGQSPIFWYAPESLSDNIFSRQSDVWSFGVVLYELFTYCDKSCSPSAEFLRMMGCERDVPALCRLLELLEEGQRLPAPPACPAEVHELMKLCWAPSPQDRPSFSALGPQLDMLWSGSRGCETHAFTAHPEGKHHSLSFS

[29] = biological target: Tyrosine-protein kinase Lyn (Homo sapiens, UniProt P07948);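 note: lyn as one member of a kinase panel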
[30] = biological target: Mitogen-activated protein kinase 9 (Homo sapiens, UniProt P45984);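 note: value from a kinome panel profiling assay, MAPK9 panel entry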
[31] = biological target: T3, Tyrosine-protein kinase ITK/TSK (Homo sapiens, UniProt Q08881);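 note: affinity for ITK measured as one member of a broad kinase panel profiling binding across the kinome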
T3 sequence (Q08881 whole entry): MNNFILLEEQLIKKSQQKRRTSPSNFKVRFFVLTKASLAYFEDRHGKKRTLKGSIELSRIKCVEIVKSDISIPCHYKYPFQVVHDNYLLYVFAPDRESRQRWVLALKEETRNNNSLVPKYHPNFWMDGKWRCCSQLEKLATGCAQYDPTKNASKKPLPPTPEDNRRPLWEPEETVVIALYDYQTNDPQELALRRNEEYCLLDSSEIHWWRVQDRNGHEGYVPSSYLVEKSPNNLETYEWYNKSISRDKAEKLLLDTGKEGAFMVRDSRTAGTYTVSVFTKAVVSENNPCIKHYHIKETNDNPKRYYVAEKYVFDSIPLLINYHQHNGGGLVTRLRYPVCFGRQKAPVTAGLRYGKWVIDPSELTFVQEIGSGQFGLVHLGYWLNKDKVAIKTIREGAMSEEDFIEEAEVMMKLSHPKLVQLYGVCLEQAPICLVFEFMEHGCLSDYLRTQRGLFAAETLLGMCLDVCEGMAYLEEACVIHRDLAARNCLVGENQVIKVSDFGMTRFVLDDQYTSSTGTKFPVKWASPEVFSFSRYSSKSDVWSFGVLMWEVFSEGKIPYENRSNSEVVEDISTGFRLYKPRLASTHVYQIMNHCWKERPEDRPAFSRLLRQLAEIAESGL

[32] = biological target: Testis-specific serine/threonine-protein kinase 1 (Homo sapiens, UniProt Q9BXA7)
[33] = biological target: Mitogen-activated protein kinase 13 (Homo sapiens, UniProt O15264)
[34] = biological target: Tyrosine-protein kinase Srms (Homo sapiens, UniProt Q9H3Y6);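 note: SRMS measured as one member of a kinome-wide kinase profiling panel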
[35] = biological target: Receptor tyrosine-protein kinase erbB-2 (Homo sapiens, UniProt P04626); assay: Navigating the Kinome. Panel member name: ERBB2
[36] = biological target: Mitogen-activated protein kinase 1 (Homo sapiens, UniProt P28482)
[37] = biological target: Interleukin-1 receptor-associated kinase 1 (Homo sapiens, UniProt P51617);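 note: IRAK1 tested as one member of a kinome panel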
[38] = biological target: Aurora kinase B (Homo sapiens, UniProt Q96GD4)
[39] = biological target: Tyrosine-protein kinase Fer (Homo sapiens, UniProt P16591);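 note: FER tested as one member of a kinome panel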

Dual specificity protein kinase CLK4, sequence (Q9HAZ1 whole entry): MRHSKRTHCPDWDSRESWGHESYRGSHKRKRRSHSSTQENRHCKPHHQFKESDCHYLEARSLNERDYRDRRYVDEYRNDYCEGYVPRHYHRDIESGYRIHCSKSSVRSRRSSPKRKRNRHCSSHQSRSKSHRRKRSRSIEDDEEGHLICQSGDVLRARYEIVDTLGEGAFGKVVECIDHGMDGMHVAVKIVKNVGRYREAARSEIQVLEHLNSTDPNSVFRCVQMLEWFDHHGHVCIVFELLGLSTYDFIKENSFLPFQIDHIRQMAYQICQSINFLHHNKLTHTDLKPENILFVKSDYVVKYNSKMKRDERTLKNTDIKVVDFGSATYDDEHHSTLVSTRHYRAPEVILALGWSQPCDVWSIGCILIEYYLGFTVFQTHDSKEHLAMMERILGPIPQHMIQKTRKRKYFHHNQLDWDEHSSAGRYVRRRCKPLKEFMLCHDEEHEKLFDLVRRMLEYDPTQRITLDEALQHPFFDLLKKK
Lymphokine-activated killer T-cell-originated protein kinase, sequence (Q96KB5 whole entry): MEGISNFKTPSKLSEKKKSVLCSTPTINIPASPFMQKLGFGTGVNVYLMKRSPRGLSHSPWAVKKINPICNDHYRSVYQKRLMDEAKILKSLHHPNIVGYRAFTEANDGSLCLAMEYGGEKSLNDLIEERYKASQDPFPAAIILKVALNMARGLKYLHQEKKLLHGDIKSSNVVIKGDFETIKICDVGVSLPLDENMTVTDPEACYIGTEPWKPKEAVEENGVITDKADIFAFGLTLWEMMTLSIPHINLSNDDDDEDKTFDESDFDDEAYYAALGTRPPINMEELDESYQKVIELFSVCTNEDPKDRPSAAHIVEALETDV
Serine/threonine-protein kinase pim-2, sequence (Q9P1W9 whole entry): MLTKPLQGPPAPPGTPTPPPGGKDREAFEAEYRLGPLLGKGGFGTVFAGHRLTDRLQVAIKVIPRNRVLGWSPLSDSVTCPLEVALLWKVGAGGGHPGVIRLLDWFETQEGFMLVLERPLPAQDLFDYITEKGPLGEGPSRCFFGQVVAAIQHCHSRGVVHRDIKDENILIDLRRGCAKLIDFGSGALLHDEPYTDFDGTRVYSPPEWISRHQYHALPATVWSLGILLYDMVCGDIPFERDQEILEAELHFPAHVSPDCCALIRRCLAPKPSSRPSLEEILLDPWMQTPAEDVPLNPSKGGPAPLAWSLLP
Mitogen-activated protein kinase 13, sequence (O15264 whole entry): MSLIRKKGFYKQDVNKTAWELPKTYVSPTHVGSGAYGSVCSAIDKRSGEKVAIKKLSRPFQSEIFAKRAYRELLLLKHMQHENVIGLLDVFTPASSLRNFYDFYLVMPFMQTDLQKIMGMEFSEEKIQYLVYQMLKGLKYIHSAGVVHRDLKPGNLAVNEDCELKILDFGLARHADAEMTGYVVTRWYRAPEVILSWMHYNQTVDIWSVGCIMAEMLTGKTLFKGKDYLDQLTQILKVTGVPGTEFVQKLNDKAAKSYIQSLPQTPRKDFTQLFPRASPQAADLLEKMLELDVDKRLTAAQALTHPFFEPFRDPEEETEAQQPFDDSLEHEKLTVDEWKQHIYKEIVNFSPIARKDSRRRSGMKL
Calcium/calmodulin-dependent protein kinase type II subunit delta, sequence (Q13557 whole entry): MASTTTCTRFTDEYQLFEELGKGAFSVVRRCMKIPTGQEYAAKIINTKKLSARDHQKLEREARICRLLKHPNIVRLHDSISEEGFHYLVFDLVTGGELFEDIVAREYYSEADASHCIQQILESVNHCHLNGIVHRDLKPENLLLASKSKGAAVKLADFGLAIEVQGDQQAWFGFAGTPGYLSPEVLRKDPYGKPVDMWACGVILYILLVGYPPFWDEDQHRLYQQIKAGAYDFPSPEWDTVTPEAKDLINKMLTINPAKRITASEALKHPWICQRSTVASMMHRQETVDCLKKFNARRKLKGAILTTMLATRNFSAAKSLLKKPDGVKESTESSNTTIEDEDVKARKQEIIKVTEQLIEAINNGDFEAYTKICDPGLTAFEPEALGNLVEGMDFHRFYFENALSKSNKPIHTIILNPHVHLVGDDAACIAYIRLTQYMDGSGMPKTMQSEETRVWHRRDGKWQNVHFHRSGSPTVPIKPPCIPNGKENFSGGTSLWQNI
Mitogen-activated protein kinase 9, sequence (P45984 whole entry): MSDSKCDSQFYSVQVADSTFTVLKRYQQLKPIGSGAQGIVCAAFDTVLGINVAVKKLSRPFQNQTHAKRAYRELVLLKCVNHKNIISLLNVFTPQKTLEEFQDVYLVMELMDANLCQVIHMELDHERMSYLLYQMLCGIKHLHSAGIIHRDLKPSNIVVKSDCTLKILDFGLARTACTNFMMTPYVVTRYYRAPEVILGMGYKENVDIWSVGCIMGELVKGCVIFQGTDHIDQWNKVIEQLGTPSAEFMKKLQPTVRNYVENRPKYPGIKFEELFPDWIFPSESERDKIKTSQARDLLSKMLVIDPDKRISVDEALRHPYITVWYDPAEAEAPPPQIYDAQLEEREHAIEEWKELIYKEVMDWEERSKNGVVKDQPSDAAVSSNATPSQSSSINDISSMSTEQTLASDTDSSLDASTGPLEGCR
Serine/threonine-protein kinase D3, sequence (O94806 whole entry): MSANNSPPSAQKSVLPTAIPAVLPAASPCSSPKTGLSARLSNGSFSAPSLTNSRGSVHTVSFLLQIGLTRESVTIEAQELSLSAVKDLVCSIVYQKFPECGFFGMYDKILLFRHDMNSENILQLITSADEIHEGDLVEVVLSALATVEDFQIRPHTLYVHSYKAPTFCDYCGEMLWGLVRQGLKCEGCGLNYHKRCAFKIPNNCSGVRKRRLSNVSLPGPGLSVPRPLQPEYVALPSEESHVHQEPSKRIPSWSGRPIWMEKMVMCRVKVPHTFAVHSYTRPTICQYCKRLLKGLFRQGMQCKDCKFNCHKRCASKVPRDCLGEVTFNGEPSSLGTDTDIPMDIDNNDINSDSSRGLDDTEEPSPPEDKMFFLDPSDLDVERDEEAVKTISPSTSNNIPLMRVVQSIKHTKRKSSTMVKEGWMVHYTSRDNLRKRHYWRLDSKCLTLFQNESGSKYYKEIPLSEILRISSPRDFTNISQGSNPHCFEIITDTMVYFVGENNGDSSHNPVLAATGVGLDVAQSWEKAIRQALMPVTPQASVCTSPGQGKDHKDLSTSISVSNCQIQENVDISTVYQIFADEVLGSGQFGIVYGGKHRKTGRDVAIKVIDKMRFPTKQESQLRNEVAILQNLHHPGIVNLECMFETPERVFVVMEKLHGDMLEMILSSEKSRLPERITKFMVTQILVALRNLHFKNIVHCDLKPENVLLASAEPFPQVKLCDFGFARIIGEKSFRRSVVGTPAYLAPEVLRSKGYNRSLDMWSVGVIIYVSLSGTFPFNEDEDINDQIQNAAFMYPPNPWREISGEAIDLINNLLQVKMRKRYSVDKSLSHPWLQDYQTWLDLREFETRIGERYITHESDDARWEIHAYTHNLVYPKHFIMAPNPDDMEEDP
Testis-specific serine/threonine-protein kinase 1, sequence (Q9BXA7 whole entry): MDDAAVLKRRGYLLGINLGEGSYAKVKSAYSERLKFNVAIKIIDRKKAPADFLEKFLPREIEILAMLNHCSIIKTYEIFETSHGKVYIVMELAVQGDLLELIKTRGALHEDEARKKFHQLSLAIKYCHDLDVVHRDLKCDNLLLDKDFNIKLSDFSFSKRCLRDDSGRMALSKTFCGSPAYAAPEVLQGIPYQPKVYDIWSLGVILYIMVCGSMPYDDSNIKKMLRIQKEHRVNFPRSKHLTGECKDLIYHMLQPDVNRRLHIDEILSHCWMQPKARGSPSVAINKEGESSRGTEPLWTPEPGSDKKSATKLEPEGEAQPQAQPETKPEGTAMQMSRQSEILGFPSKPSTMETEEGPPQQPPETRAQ
Proto-oncogene tyrosine-protein kinase receptor Ret, sequence (P07949 whole entry): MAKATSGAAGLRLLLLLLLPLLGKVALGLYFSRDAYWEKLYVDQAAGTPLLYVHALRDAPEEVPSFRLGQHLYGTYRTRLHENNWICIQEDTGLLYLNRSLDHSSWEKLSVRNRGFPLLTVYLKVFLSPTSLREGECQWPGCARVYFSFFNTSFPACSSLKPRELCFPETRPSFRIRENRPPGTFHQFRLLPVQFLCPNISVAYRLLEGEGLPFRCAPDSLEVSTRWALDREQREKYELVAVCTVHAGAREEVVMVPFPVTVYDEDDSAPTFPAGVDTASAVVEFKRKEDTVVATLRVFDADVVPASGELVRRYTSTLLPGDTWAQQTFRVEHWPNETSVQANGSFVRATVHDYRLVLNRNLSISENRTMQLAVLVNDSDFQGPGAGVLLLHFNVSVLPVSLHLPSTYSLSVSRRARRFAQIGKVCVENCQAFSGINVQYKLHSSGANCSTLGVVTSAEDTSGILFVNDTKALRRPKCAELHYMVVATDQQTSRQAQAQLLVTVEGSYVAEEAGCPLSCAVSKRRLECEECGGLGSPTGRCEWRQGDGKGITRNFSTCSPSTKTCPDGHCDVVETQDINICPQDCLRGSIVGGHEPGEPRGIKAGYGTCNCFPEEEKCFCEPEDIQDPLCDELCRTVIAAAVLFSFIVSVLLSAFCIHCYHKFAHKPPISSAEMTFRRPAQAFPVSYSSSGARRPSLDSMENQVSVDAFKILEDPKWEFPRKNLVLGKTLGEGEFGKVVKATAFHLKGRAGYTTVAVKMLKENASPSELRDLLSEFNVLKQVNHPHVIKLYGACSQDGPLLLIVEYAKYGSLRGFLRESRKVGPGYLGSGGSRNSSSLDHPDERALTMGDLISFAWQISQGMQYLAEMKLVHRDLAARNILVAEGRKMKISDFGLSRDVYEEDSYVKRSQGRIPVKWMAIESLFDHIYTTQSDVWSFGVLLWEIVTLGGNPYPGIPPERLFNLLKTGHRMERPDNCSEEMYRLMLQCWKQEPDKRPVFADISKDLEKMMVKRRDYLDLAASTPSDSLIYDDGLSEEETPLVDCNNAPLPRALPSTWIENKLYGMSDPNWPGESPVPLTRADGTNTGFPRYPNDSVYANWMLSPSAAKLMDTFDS

Ki [1]: 3160 nM (active)
Ki [2]: > 100000 nM (inactive)
Ki [3]: 10000 nM (active)
Ki [5]: 1580 nM (active)
Compound: O=c1[nH]c2ccccc2n2cc(-c3ccc(Cl)cc3)cc12
Ki [4]: 3160 nM (active)

Ki [6]: 100000 nM (active)
Ki [7]: 50100 nM (active)
Ki [8]: 63100 nM (active)
Ki [9]: 79400 nM (active)
Ki [10]: 39800 nM (active)
Ki [11]: 39800 nM (active)
Ki [12]: 63100 nM (active)
Ki [13]: 10000 nM (active)
Ki [14]: 63100 nM (active)
Ki [15]: 39800 nM (active)
Ki [16]: 39800 nM (active)
Compound: O=c1[nH]nc2c(-c3ccccc3)cccn12

Ki [17]: 5010 nM (active)
Ki [18]: 6310 nM (active)
Ki [19]: 10000 nM (active)
Ki [20]: 1260 nM (active)
Ki [21]: 10000 nM (active)
Compound: CN(c1ccc2[nH]ncc2c1)c1c(NCc2ccc(Cl)cc2Cl)c(=O)c1=O
Ki [4]: 10000 nM (active)

Compound: COc1ccc2c(c1)C(=Cc1cnc[nH]1)C(=O)N2
Ki [22]: 501 nM (active)
Ki [23]: > 1580 nM (inactive)
Ki [24]: > 1580 nM (inactive)
Ki [25]: 1580 nM (active)
Ki [26]: > 1580 nM (inactive)
Ki [27]: 1580 nM (active)
Ki [28]: 501 nM (active)
Ki [29]: > 1580 nM (inactive)
Ki [30]: 1580 nM (active)
Ki [31]: > 1580 nM (inactive)
Ki [32]: > 1580 nM (inactive)
Ki [33]: > 7940 nM (inactive)
Ki [34]: > 1580 nM (inactive)
Ki [35]: > 1580 nM (inactive)
Ki [36]: 501 nM (active)
Ki [37]: 1580 nM (active)
Ki [38]: 251 nM (active)
Ki [39]: > 1580 nM (inactive)
Ki [20]: > 1580 nM (inactive)
Ki [13]: 251 nM (active)
